Reference: patent US20240124483A1, “Methods for the Treatment of Fibrotic Disease” (SHY Therapeutics, LLC, priority 2021, published 2024)

Test system: Smad2 phosphorylation
Assay: Phospho-Smad2 analysis of muscle tissue in the D2-mdx mouse model (western blot, densitometry)
Format: in vivo
Text: The experiment described herein was designed to monitor the effects of Compound 9 on two biomarkers related to fibrosis in D2-mdx mice. The first biomarker is Smad2 phosphorylation, and the second is the levels of serum albumin in the different muscle tissues. Fibrosis causes disruption of the fine transparent tubular sheath which envelops the fibers of skeletal muscles, this can result in various molecules from the blood and interstitial fluid leaking into myofibres. A classic example is serum albumin, which can be identified in tissue sections and considered to be hallmark of myofibre permeability.
Experimental Design: Compound 9 was suspended in 0.5% Hydroxypropyl Methylcellulose (HPMC)/0.1% Tween® 80 to a final concentration of 10 mg/mL. The dosing solutions were prepared prior to the start of the test and were stored in the dark and maintained in frozen aliquots. Doses were thawed prior to administration. Male D2-mdx (JAX Stock No: 013141) mice were sourced from The Jackson Laboratory and housed in solid bottom cages with standard chow and water ad libitum. Dosing was initiated when animals were ˜3 weeks old. Animals were dosed daily by intraperitoneal (IP) injection at 100 mg/kg or vehicle for 3 days. […] Mice were sacrificed by CO2 euthanasia approximately 6 hours after their day 3 dosing. Heart, diaphragm, quadriceps, tibialis anterior (TA) samples were collected at termination on day 3 and snap frozen. These samples were shipped on dry ice for analysis, and were stored at −80° C.
Tissue protein extraction: Frozen tissues were placed on ice in prechilled tubes with 30 μL/mg with of ice-cold RIPA buffer+Halt™ Protease & Phosphatase Inhibitor Cocktail. Tissue was homogenized with a manual tissue homogenizer then centrifuged at 14,000 RPM at 4° C. for 15 min. Supernatant was removed and protein concentration determined by BCA assay.
Western blot protocol: Equal amounts of protein (15-50 μg) were separated by SDS-PAGE and transferred to nitrocellulose membranes (Invitrogen by Thermo Fisher Scientific). The membrane was stained with Ponceau S Stain (Boston BioProducts) to verify uniform protein loading. Membranes were blocked with 10% milk and albumin levels were assessed by incubating overnight at 4° C. with albumin antibody (Cell Signaling Technology #4929). Then the membranes were incubated with HRP-conjugated secondary antibody (Jackson Immunoresearch, West Grove, PA). Bands were incubated in Amersham ECL Prime Western Blotting Detection Reagent (GE Healthcare) and visualized using the ChemiDoc MP imaging system (Bio-Rad).
Western blot images for samples collected from heart (FIG. 2), diaphragm (FIG. 3), quadriceps (FIG. 4), and tibialis anterior (TA, FIG. 5) tissues following termination on day 3 were analyzed, providing the results summarized herein below (derived by densitometry).

[1] = D2-mdx mice, 100 mg/kg IP, 3 days
[2] = Ratio of Vehicle and Treated, 100 mg/kg IP, 3 days
[3] = Treated, 100 mg/kg IP daily for 3 days, D2-mdx mice, densitometry

## COCCNc1nc(-c2nccn2C)nc2sc(-c3cccc(OC)c3Cl)c(-c3ccccc3)c12 [Compound 9, 6-(2-Chloro-3-methoxyphenyl)-N-(2-methoxyethyl)-2-(1-methyl-1H-imidazol-2-yl)-5-phenylthieno[2,3-d]pyrimidin-4-amine]
[1]
  Smad2 phosphorylation in the diaphragm compared to control vehicle mice: inhibition of Smad2 phosphorylation
  Smad2 phosphorylation in the heart: No changes were detected
[2]
  Phospho-Smad2, Diaphragm, Average, Ratio: 1.53
  Phospho-Smad2, Diaphragm, Median, Ratio: 1.54
  Phospho-Smad2, Quadriceps, Average, Ratio: 1.10
  Phospho-Smad2, Quadriceps, Median, Ratio: 0.64
[3]
  Phospho-Smad2, Diaphragm, Average: 0.18 ± 0.06
  Phospho-Smad2, Diaphragm, Median: 0.19
  Phospho-Smad2, Quadriceps, Average: 0.22 ± 0.11
  Phospho-Smad2, Quadriceps, Median: 0.28
